Source: the kinase profiling compilation of Christmann-Franck et al. (2016)

Columns and labels:
Experiment in all cases: radiometric filter-binding kinase assay
[1] = tested on: AKT2 (human), P31751 [S474D]
[2] = biological target: AURKB (human) (UniProt Q96GD4)
[3] = biological target: CAMKK2 (human) (UniProt Q96RR4)
[4] = biological target: CHEK1 (human) (UniProt O14757)
[5] = biological target: CHEK2 (human) (UniProt O96017)
[6] = biological target: EPHB4 (human) (UniProt P54760)
[7] = biological target: GCK (human) (UniProt Q12851)
[8] = biological target: IGF1R (human) (UniProt P08069)
[9] = biological target: IKBKB (human) (UniProt O14920)
[10] = biological target: MAP2K1 (human) (UniProt Q02750)
[11] = biological target: MAP3K1 (human) (UniProt Q13233)
[12] = biological target: MAP3K5 (human) (UniProt Q99683)
[13] = biological target: MAPK1 (human) (UniProt P28482)
[14] = biological target: MAPK10 (human) (UniProt P53779)
[15] = biological target: MAPK15 (human) (UniProt Q8TD08)
[16] = biological target: MAPK3 (human) (UniProt P27361)
[17] = biological target: MAPK9 (human) (UniProt P45984)
[18] = biological target: MAPKAPK2 (human) (UniProt P49137)
[19] = biological target: MARK2 (human) (UniProt Q7KZI7)
[20] = biological target: MINK1 (human) (UniProt Q8N4C8)
[21] = biological target: MKNK1 (human) (UniProt Q9BUB5)
[22] = biological target: MKNK2 (human) (UniProt Q9HBH9)
[23] = biological target: NEK2 (human) (UniProt P51955)
[24] = biological target: NTRK1 (human) (UniProt P04629)
[25] = biological target: PHKG1 (human) (UniProt Q16816)
[26] = biological target: PIM2 (human) (UniProt Q9P1W9)
[27] = biological target: PKN2 (human) (UniProt Q16513)
[28] = tested on: PRKAA1 or PRKAA2 (rat); conditions: accession and sequence are those of the human protein
[29] = biological target: PRKACA (human) (UniProt P17612)
[30] = biological target: PRKCA (human) (UniProt P17252)
[31] = biological target: RPS6KA1 KD1 KD2 (human) (UniProt Q15418)
[32] = biological target: STK11 CAB39 STRADA (human) (UniProt Q9Y376+Q7RTN6+Q15831)
[33] = biological target: STK3 (human) (UniProt Q13188)
[34] = biological target: YES1 (human) (UniProt P07947)
[35] = biological target: SRC (human) (UniProt P12931)

Chain of YES1 (human) (P07947 whole entry, looked up): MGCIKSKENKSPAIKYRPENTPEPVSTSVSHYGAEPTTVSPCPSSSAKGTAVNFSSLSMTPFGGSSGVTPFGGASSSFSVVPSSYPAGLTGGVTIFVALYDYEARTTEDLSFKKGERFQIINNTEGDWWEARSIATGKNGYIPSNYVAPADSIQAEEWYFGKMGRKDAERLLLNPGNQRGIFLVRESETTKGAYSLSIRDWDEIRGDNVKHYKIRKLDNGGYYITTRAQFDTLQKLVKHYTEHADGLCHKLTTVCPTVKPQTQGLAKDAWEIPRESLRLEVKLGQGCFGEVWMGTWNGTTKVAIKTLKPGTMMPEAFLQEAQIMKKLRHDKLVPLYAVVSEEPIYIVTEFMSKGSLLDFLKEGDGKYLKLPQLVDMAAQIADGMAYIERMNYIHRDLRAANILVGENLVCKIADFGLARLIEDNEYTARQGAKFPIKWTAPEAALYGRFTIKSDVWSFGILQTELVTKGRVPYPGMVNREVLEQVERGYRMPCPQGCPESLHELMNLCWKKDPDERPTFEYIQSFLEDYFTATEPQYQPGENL
Chain of MAPKAPK2 (human) (P49137 whole entry, looked up): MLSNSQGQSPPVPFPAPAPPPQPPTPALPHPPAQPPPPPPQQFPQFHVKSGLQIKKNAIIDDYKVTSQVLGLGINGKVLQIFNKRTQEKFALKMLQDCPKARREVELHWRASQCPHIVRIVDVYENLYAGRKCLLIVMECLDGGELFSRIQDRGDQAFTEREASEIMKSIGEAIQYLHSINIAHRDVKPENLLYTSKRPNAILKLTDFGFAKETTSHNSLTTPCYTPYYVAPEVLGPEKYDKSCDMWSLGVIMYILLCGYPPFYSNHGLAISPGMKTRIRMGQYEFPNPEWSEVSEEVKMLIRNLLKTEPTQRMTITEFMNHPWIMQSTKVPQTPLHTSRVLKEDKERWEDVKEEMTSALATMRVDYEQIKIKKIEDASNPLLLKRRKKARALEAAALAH
Chain of CAMKK2 (human) (Q96RR4 whole entry, looked up): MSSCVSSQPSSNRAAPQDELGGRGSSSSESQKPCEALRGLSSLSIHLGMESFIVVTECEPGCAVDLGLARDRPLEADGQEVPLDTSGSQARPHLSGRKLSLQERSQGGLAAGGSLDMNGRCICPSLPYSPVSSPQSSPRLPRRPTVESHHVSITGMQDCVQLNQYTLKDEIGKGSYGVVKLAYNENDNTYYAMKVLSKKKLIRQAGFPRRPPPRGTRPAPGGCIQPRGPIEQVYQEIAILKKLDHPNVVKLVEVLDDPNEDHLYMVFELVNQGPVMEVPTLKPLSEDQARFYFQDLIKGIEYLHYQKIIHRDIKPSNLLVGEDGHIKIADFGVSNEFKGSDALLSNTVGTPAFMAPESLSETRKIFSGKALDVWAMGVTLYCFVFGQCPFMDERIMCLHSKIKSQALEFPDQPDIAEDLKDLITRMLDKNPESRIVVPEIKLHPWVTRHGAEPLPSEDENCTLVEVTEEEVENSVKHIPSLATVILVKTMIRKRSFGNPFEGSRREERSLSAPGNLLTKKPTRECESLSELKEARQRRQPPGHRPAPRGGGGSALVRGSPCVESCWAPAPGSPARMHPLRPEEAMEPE
Chain of MKNK2 (human) (Q9HBH9 whole entry, looked up): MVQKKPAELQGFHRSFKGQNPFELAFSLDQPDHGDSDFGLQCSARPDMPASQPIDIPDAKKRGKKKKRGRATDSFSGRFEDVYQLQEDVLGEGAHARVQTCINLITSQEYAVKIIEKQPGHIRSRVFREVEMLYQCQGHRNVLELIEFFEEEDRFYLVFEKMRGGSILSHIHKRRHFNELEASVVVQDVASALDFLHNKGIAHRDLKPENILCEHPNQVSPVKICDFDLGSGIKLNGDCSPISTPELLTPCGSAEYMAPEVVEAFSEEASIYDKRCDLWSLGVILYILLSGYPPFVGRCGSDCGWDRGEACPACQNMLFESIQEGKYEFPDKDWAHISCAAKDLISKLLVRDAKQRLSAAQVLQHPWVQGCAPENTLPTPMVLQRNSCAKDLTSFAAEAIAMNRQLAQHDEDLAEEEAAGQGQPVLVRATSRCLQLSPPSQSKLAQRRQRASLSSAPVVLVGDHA
Chain of CHEK1 (human) (O14757 whole entry, looked up): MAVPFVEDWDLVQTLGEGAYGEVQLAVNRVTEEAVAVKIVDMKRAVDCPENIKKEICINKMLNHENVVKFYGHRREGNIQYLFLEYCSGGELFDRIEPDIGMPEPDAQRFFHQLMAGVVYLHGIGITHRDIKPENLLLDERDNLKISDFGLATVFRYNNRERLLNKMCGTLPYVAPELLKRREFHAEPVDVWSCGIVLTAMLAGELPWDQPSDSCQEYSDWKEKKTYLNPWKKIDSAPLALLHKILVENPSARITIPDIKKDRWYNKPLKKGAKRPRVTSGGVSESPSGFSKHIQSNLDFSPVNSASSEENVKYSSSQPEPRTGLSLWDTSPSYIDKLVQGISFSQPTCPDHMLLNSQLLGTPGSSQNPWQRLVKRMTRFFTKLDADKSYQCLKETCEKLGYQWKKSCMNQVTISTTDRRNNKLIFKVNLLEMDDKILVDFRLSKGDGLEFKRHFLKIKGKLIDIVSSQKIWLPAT
Chain of MAP3K5 (human) (Q99683 whole entry, looked up): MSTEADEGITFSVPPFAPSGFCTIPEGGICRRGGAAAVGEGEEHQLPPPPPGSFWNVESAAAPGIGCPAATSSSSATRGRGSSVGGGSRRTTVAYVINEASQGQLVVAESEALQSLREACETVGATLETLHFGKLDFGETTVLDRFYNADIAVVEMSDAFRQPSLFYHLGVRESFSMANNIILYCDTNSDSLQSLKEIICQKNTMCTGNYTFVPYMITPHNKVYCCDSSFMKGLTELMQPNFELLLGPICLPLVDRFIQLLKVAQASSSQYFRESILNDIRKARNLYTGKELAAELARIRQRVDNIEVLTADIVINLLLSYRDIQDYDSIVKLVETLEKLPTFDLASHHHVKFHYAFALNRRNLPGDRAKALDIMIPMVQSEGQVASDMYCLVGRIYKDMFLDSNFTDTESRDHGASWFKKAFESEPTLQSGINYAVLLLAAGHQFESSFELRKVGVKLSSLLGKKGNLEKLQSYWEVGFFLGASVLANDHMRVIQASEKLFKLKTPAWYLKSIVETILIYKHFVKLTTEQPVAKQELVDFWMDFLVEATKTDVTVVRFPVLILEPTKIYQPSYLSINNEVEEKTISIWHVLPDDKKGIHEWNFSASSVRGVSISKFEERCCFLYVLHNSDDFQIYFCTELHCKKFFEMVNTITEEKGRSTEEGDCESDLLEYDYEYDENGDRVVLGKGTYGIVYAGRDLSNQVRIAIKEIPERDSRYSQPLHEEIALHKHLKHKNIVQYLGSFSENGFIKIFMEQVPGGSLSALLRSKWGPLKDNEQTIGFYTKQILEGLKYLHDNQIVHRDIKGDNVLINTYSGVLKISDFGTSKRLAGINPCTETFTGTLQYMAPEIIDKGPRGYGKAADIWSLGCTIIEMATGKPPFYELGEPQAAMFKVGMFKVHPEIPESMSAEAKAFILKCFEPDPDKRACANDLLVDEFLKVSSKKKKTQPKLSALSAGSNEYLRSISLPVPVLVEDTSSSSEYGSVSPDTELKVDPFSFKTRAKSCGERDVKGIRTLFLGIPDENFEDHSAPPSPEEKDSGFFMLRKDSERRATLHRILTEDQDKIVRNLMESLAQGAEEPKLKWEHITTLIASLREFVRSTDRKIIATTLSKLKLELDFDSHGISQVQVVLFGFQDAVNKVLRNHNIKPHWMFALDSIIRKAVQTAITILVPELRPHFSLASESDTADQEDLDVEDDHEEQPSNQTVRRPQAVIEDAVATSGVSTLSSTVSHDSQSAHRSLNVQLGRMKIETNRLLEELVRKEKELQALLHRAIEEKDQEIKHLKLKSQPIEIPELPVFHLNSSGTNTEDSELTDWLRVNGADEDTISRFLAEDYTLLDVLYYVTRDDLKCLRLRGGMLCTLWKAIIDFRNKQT
Chain of EPHB4 (human) (P54760 whole entry, looked up): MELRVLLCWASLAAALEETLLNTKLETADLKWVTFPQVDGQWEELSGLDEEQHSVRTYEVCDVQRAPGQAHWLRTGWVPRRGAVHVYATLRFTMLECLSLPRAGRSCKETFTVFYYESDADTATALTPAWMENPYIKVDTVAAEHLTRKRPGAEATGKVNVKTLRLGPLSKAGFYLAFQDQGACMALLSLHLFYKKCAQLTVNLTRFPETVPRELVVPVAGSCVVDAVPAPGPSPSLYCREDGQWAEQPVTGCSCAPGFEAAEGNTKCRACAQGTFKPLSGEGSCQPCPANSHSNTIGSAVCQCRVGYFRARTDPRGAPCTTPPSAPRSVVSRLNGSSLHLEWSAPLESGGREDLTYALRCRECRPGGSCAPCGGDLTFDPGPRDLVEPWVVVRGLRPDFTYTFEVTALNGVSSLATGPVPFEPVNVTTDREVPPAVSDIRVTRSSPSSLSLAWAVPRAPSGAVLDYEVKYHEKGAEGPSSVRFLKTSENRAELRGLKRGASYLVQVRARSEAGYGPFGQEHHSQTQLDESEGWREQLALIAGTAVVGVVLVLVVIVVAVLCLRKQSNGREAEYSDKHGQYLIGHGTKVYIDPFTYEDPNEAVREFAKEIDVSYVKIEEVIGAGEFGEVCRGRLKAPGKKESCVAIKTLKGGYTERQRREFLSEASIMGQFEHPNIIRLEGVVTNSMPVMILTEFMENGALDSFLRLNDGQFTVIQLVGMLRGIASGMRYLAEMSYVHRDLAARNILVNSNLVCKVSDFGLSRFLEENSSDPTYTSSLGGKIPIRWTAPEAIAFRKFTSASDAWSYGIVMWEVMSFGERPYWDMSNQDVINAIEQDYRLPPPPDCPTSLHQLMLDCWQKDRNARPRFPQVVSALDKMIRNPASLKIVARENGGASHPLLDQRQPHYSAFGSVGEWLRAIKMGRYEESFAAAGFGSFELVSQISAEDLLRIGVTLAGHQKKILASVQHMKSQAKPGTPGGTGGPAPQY

C=CC(=O)N1CCC[C@@H](n2nc(-c3ccc(Oc4ccccc4)cc3)c3c(N)ncnc32)C1
residual activity ([1]; compound 0.1 µM): 80% | residual activity ([1]; compound 1.0 µM): 93% | residual activity ([1]; compound 10.0 µM): 71% | residual activity ([2]; compound 0.1 µM): 96% | residual activity ([2]; compound 1.0 µM): 61% | residual activity ([2]; compound 10.0 µM): 13% | residual activity ([3]; compound 0.1 µM): 86% | residual activity ([3]; compound 1.0 µM): 109% | residual activity ([3]; compound 10.0 µM): 80% | residual activity ([4]; compound 0.1 µM): 76% | residual activity ([4]; compound 1.0 µM): 93% | residual activity ([4]; compound 10.0 µM): 77% | residual activity ([5]; compound 0.1 µM): 92% | residual activity ([5]; compound 1.0 µM): 77% | residual activity ([5]; compound 10.0 µM): 35% | residual activity ([6]; compound 0.1 µM): 83% | residual activity ([6]; compound 1.0 µM): 74% | residual activity ([6]; compound 10.0 µM): 39% | residual activity ([7]; compound 0.1 µM): 98% | residual activity ([7]; compound 1.0 µM): 77% | residual activity ([7]; compound 10.0 µM): 38% | residual activity ([8]; compound 0.1 µM): 95% | residual activity ([8]; compound 1.0 µM): 93% | residual activity ([8]; compound 10.0 µM): 63% | residual activity ([9]; compound 0.1 µM): 94% | residual activity ([9]; compound 1.0 µM): 107% | residual activity ([9]; compound 10.0 µM): 90% | residual activity ([10]; compound 0.1 µM): 85% | residual activity ([10]; compound 1.0 µM): 76% | residual activity ([10]; compound 10.0 µM): 56% | residual activity ([11]; compound 0.1 µM): 106% | residual activity ([11]; compound 1.0 µM): 103% | residual activity ([11]; compound 10.0 µM): 56% | residual activity ([12]; compound 0.1 µM): 103% | residual activity ([12]; compound 1.0 µM): 128% | residual activity ([12]; compound 10.0 µM): 111% | residual activity ([13]; compound 0.1 µM): 94% | residual activity ([13]; compound 1.0 µM): 99% | residual activity ([13]; compound 10.0 µM): 90% | residual activity ([14]; compound 0.1 µM): 84% | residual activity ([14]; compound 1.0 µM): 96% | residual activity ([14]; compound 10.0 µM): 86% | residual activity ([15]; compound 0.1 µM): 85% | residual activity ([15]; compound 1.0 µM): 98% | residual activity ([15]; compound 10.0 µM): 74% | residual activity ([16]; compound 0.1 µM): 83% | residual activity ([16]; compound 10.0 µM): 84% | residual activity ([17]; compound 0.1 µM): 89% | residual activity ([17]; compound 1.0 µM): 101% | residual activity ([18]; compound 0.1 µM): 88% | residual activity ([18]; compound 1.0 µM): 95% | residual activity ([18]; compound 10.0 µM): 90% | residual activity ([19]; compound 0.1 µM): 88% | residual activity ([19]; compound 1.0 µM): 102% | residual activity ([19]; compound 10.0 µM): 82% | residual activity ([20]; compound 0.1 µM): 90% | residual activity ([20]; compound 1.0 µM): 91% | residual activity ([20]; compound 10.0 µM): 57% | residual activity ([21]; compound 0.1 µM): 91% | residual activity ([21]; compound 1.0 µM): 115% | residual activity ([21]; compound 10.0 µM): 84% | residual activity ([22]; compound 0.1 µM): 106% | residual activity ([22]; compound 10.0 µM): 67% | residual activity ([23]; compound 0.1 µM): 93% | residual activity ([23]; compound 1.0 µM): 107% | residual activity ([23]; compound 10.0 µM): 35% | residual activity ([24]; compound 0.1 µM): 64% | residual activity ([24]; compound 1.0 µM): 46% | residual activity ([24]; compound 10.0 µM): 13% | residual activity ([25]; compound 1.0 µM): 104% | residual activity ([25]; compound 10.0 µM): 92% | residual activity ([26]; compound 0.1 µM): 99% | residual activity ([26]; compound 1.0 µM): 100% | residual activity ([26]; compound 10.0 µM): 97% | residual activity ([27]; compound 0.1 µM): 109% | residual activity ([27]; compound 1.0 µM): 100% | residual activity ([27]; compound 10.0 µM): 90% | residual activity ([28]; compound 0.1 µM): 88% | residual activity ([28]; compound 1.0 µM): 101% | residual activity ([28]; compound 10.0 µM): 78% | residual activity ([29]; compound 0.1 µM): 89% | residual activity ([29]; compound 1.0 µM): 101% | residual activity ([29]; compound 10.0 µM): 97% | residual activity ([30]; compound 0.1 µM): 99% | residual activity ([30]; compound 10.0 µM): 100% | residual activity ([31]; compound 0.1 µM): 94% | residual activity ([31]; compound 1.0 µM): 101% | residual activity ([31]; compound 10.0 µM): 46% | residual activity ([32]; compound 0.1 µM): 106% | residual activity ([32]; compound 10.0 µM): 100% | residual activity ([33]; compound 0.1 µM): 88% | residual activity ([33]; compound 1.0 µM): 65% | residual activity ([33]; compound 10.0 µM): 41% | residual activity ([34]; compound 0.1 µM): 20% | residual activity ([34]; compound 1.0 µM): 16% | residual activity ([34]; compound 10.0 µM): 13%

Nc1cccc2c1CN(C1CCC(=O)NC1=O)C2=O (configuration not stated)
residual activity ([1]; compound 1.0 µM): 85% | residual activity ([1]; compound 10.0 µM): 94% | residual activity ([2]; compound 1.0 µM): 83% | residual activity ([2]; compound 10.0 µM): 105% | residual activity ([3]; compound 1.0 µM): 92% | residual activity ([3]; compound 10.0 µM): 84% | residual activity ([4]; compound 1.0 µM): 94% | residual activity ([4]; compound 10.0 µM): 82% | residual activity ([5]; compound 1.0 µM): 96% | residual activity ([5]; compound 10.0 µM): 93% | residual activity ([6]; compound 1.0 µM): 91% | residual activity ([6]; compound 10.0 µM): 99% | residual activity ([7]; compound 1.0 µM): 103% | residual activity ([7]; compound 10.0 µM): 114% | residual activity ([8]; compound 1.0 µM): 106% | residual activity ([8]; compound 10.0 µM): 106% | residual activity ([9]; compound 1.0 µM): 100% | residual activity ([9]; compound 10.0 µM): 106% | residual activity ([10]; compound 1.0 µM): 90% | residual activity ([10]; compound 10.0 µM): 92% | residual activity ([11]; compound 1.0 µM): 101% | residual activity ([11]; compound 10.0 µM): 97% | residual activity ([12]; compound 1.0 µM): 102% | residual activity ([12]; compound 10.0 µM): 101% | residual activity ([14]; compound 1.0 µM): 90% | residual activity ([14]; compound 10.0 µM): 95% | residual activity ([15]; compound 1.0 µM): 92% | residual activity ([15]; compound 10.0 µM): 98% | residual activity ([16]; compound 1.0 µM): 90% | residual activity ([16]; compound 10.0 µM): 94% | residual activity ([17]; compound 1.0 µM): 100% | residual activity ([17]; compound 10.0 µM): 102% | residual activity ([18]; compound 1.0 µM): 79% | residual activity ([18]; compound 10.0 µM): 92% | residual activity ([19]; compound 1.0 µM): 99% | residual activity ([19]; compound 10.0 µM): 104% | residual activity ([20]; compound 1.0 µM): 111% | residual activity ([20]; compound 10.0 µM): 118% | residual activity ([21]; compound 1.0 µM): 116% | residual activity ([21]; compound 10.0 µM): 111% | residual activity ([22]; compound 1.0 µM): 80% | residual activity ([22]; compound 10.0 µM): 89% | residual activity ([23]; compound 1.0 µM): 97% | residual activity ([23]; compound 10.0 µM): 96% | residual activity ([24]; compound 10.0 µM): 141% | residual activity ([25]; compound 1.0 µM): 101% | residual activity ([25]; compound 10.0 µM): 103% | residual activity ([26]; compound 1.0 µM): 98% | residual activity ([27]; compound 1.0 µM): 93% | residual activity ([27]; compound 10.0 µM): 88% | residual activity ([28]; compound 1.0 µM): 98% | residual activity ([28]; compound 10.0 µM): 92% | residual activity ([29]; compound 1.0 µM): 101% | residual activity ([29]; compound 10.0 µM): 84% | residual activity ([30]; compound 1.0 µM): 107% | residual activity ([30]; compound 10.0 µM): 100% | residual activity ([31]; compound 1.0 µM): 98% | residual activity ([31]; compound 10.0 µM): 97% | residual activity ([35]; compound 1.0 µM): 105% | residual activity ([35]; compound 10.0 µM): 114% | residual activity ([32]; compound 1.0 µM): 116% | residual activity ([32]; compound 10.0 µM): 112% | residual activity ([33]; compound 1.0 µM): 102% | residual activity ([33]; compound 10.0 µM): 101% | residual activity ([34]; compound 1.0 µM): 102% | residual activity ([34]; compound 10.0 µM): 102%
